Measured values published in patent US7291622B2, “Medical uses of carbamate-substituted pyrazolo-pyridine derivatives” (Bayer Aktiengesellschaft, priority 2000, dated 2007).

Each molecule was assayed on rabbit aorta rings (assay: Vasorelaxant effect in vitro (phenylephrine-contracted rabbit aorta rings)). Details: Oryctolagus cuniculus; rabbit aortic rings, phenylephrine contraction; concentration reducing height of control contraction by 50%.
Protocol: Vasorelaxant Effect In Vitro
Rabbits are stunned by a blow to the back of the neck and are exsanguinated. The aorta is removed, freed of adherent tissue and divided into rings 1.5 mm wide, which are put singly under tension in 5 ml organ baths containing carbogen-gassed Krebs-Henseleit solution at 37° C. with the following composition (mM): NaCl: 119; KCl: 4.8; CaCl2×2H2O: 1; MgSO4×7H2O: 1.4; KH2PO4: 1.2; NaHCO3: 25; glucose: 10. The force of contraction is detected with Statham UC2 cells, amplified and digitized via A/D converters (DAS-1802 HC, Keithley Instruments Munich) and recorded in parallel on chart recorders. A contraction is generated by adding phenylephrine to the bath cumulatively in increasing concentration. After several control cycles, the substance to be investigated is investigated in each further run in increasing dosage in each case, and the height of the contraction is compared with the height of the contraction reached in the last preceding run. The concentration necessary to reduce the height of the control value by 50% (IC50) is calculated from this. The standard application volume is 5 μl, and the DMSO content in the bath solution corresponds to 0.1%.

Row | Structure (SMILES) | IC50 [nM]
1 | Nc1nc(-c2nn(Cc3ccccc3F)c3ncccc23)ncc1CC(=O)N1CCOCC1 [Example 2] | 650
2 | C=CCN(CC=C)C(=O)Oc1cnc(-c2nn(Cc3ccccc3F)c3ncccc23)nc1N [Example 11] | 520
3 | CCOC(=O)CN(C(=O)Oc1cnc(-c2nn(Cc3ccccc3F)c3ncccc23)nc1N)C(C)COC (centres unmarked) [Example 15] | 320
4 | CN(C)C(=S)Oc1cnc(-c2nn(Cc3ccccc3F)c3ncccc23)nc1N [Example 19] | 420
5 | CCN(CC)C(=O)Nc1nc(-c2nn(Cc3ccccc3F)c3ncccc23)ncc1OC(=O)N(CC)CC [Example 26, 4-{[(Diethylamino)carbonyl]amino}-2-[1-(2-fluorobenzyl)-1H-pyrazolo[3,4-b]pyridin-3-yl]-5-pyrimidinyl diethylcarbamate] | 340
